The values that follow come from article PMC2391127, “Modulation of erlotinib pharmacokinetics in mice by a novel cytochrome P450 3A4 inhibitor, BAS 100” (British Journal of Cancer, 2008).

Where two headings read alike, the source gives them in different places.

Data set [1] can be described thus: 2-h plasma concentration of erlotinib in wild-type FVB/NCr mice. It is filed as in vivo. To be noted: for concentration at 2 h: female, FVB/NCr, mouse, plasma, po. On the procedure:
(§1) BAS 100 was obtained from Bioavailabilty Systems (Cocoa Beach, FL, USA), and erlotinib and OSI-420 were obtained from Toronto Research Chemicals (North York, ON, Canada). All other chemicals and reagents were purchased from Sigma-Aldrich (St Louis, MO, USA). Female BALB/c mice (6–8 weeks old) were kept in a controlled environment, with food and water available ad libitum. All procedures were carried out with NCI Animal Care and Use Committee approval. In the first study, BAS 100 and erlotinib were formulated in 10% DMSO and 5% polysorbate 80 in saline. Mice were randomised to receive erlotinib (10 mg kg^−1, p.o.) alone or 30 min after BAS 100 (10 mg kg^−1, p.o.). Blood was collected by cardiac puncture from three mice per time point at 0.083, 0.25, 0.5, 1, 2, 4, 6 and 24 h following erlotinib administration, and centrifuged to obtain plasma. In the second study, erlotinib was formulated in 0.3% carboxymethylcellulose and 0.1% polysorbate 80 in saline. Female CYP3A4 transgenic mice ([Granvil et al, 2003]) and wild-type FVB/NCr mice (14 weeks old) received erlotinib (10 mg kg^−1, p.o.) alone or 30 min after BAS 100 (25 mg kg^−1, p.o.). Blood was collected 2 h after erlotinib administration. All samples were stored at −80°C until analysis. Plasma concentrations of erlotinib and OSI-420 were measured as described previously ([Zhao et al, 2003]). Plasma concentrations of BAS 100 were measured by a novel liquid chromatography-tandem mass spectrometry method. Briefly, plasma samples were prepared by protein precipitation with acetonitrile. BAS 100 and the internal standard (temazepam) were resolved isocratically on a Waters XTerra MS C18 column (50 × 2.1 mm internal diameter; 3.5 μm particle size). The mass spectrometer was equipped with an electrospray ionisation source and operated in positive mode. Detection was performed by multiple reaction monitoring. The lower limit of quantitation was 10 ng ml^−1. Pharmacokinetic parameters were determined by noncompartmental analysis using WinNonlin Professional Version 5.2 (Pharsight Corporation, Mountain View, CA, USA). […]

Data set [2] can be described thus: 2-h plasma concentration of erlotinib in CYP3A4 transgenic mice. To be noted: female, mouse, in vivo, po, 10 mg kg^-1. On the procedure:
as §1, with “Female CYP3A4 transgenic mice ([Granvil et al, 2003]) and wild-type FVB/NCr mice (14 weeks old) received erlotinib (10 mg kg^−1, p.o.) alone or 30 min after BAS 100 (25 mg kg^−1, p.o.). Blood was collected 2 h after erlotinib administration. All samples were stored at −80°C until analysis.” left out, “Briefly, plasma samples were prepared by protein precipitation with acetonitrile. BAS 100 and the internal standard (temazepam) were resolved isocratically on a Waters XTerra MS C18 column (50 × 2.1 mm internal diameter; 3.5 μm particle size). The mass spectrometer was equipped with an electrospray ionisation source and operated in positive mode. Detection was performed by multiple reaction monitoring.” left out

For data set [3] the following is noted: ref Hidalgo et al, 2001, cited from earlier work.
A short description of data set [4]: Plasma pharmacokinetics of erlotinib, OSI-420 and BAS 100 after oral dosing in BALB/c mice. The data set is classed as in vivo. To be noted: for AUC(0-t) / Cmax / half-life: BALB/c; for AUC(0-t) / Cmax / half-life / Tmax: mouse, po; for half-life: read-out: HL λz (terminal half-life) (converted). On the procedure: BAS 100 was obtained from Bioavailabilty Systems (Cocoa Beach, FL, USA), and erlotinib and OSI-420 were obtained from Toronto Research Chemicals (North York, ON, Canada). All other chemicals and reagents were purchased from Sigma-Aldrich (St Louis, MO, USA). Female BALB/c mice (6–8 weeks old) were kept in a controlled environment, with food and water available ad libitum. All procedures were carried out with NCI Animal Care and Use Committee approval. In the first study, BAS 100 and erlotinib were formulated in 10% DMSO and 5% polysorbate 80 in saline. Mice were randomised to receive erlotinib (10 mg kg^−1, p.o.) alone or 30 min after BAS 100 (10 mg kg^−1, p.o.). Blood was collected by cardiac puncture from three mice per time point at 0.083, 0.25, 0.5, 1, 2, 4, 6 and 24 h following erlotinib administration, and centrifuged to obtain plasma. In the second study, erlotinib was formulated in 0.3% carboxymethylcellulose and 0.1% polysorbate 80 in saline. Female CYP3A4 transgenic mice ([Granvil et al, 2003]) and wild-type FVB/NCr mice (14 weeks old) received erlotinib (10 mg kg^−1, p.o.) alone or 30 min after BAS 100 (25 mg kg^−1, p.o.). Blood was collected 2 h after erlotinib administration. All samples were stored at −80°C until analysis. Plasma concentrations of erlotinib and OSI-420 were measured as described previously ([Zhao et al, 2003]). Plasma concentrations of BAS 100 were measured by a novel liquid chromatography-tandem mass spectrometry method. Briefly, plasma samples were prepared by protein precipitation with acetonitrile. BAS 100 and the internal standard (temazepam) were resolved isocratically on a Waters XTerra MS C18 column (50 × 2.1 mm internal diameter; 3.5 μm particle size). The mass spectrometer was equipped with an electrospray ionisation source and operated in positive mode. Detection was performed by multiple reaction monitoring. The lower limit of quantitation was 10 ng ml^−1. Pharmacokinetic parameters were determined by noncompartmental analysis using WinNonlin Professional Version 5.2 (Pharsight Corporation, Mountain View, CA, USA). Bailer's method ([Bailer, 1988]) was used to estimate the variance of the area under the curve (AUC). A Z-test was used for the pairwise comparison of AUCs ([Yuan, 1993]).

The mark [5] stands for this setting: female, plasma, 10 mg/kg, plasma, erlotinib 10 mg kg^-1 p.o. 30 min after BAS 100 10 mg kg^-1 p.o., BALB/c mice.
The mark [6] stands for this setting: female, plasma, 10 mg/kg, erlotinib 10 mg kg^-1 p.o. alone (-BAS 100), BALB/c mice.

On to `C#Cc1cccc(Nc2ncnc3cc(OCCOC)c(OCCOC)cc23)c1` [Erlotinib], for which the “fold increase in 2-h plasma concentration of erlotinib by BAS 100” value in data set [1] (BAS 100 25 mg kg^-1 p.o.) is given as 1.9 fold. Besides, the figures for the concentration at 2 h in data set [1] (erlotinib 10 mg kg^-1 p.o. 30 min after BAS 100 25 mg kg^-1 p.o.), in data set [1] (erlotinib 10 mg kg^-1 p.o. alone) and in data set [2] were 1410 ± 237 ng/mL, 744 ± 135 ng/mL and 929 ± 80 ng/mL, respectively. Moreover, in data set [3] (cancer patients), the “relative extent of metabolism of erlotinib into OSI-420” value is 0.12. The interindividual pharmacokinetic variability entry in data set [3] (patients, Tan et al, 2004) is given as “up to eight-fold”. Further, the “erlotinib exposure after 2.5-fold increase in the dose of BAS 100” value in data set [4] (BAS 100 25 mg kg^-1 vs 10 mg kg^-1, data not shown) is “did not result in a further increase in erlotinib exposure”. Besides, the “fold increase in the AUC of erlotinib by BAS 100” value in data set [4] (erlotinib 10 mg kg^-1 p.o. after BAS 100 10 mg kg^-1 p.o. vs alone, P<0.05) is given as 2.1 fold. Besides, the AUC(0-t) was found to be 38000 ng·h/mL in data set [4] (setting [5]) and 18000 ng·h/mL in data set [4] (setting [6]). In addition, the values for the Cmax in data set [4] (setting [5]) and in data set [4] (setting [6]) were 3950 ng/mL and 2320 ng/mL, respectively. Moreover, the half-life in data set [4] (setting [5]) was 3.2 h; in data set [4] (female, plasma, 10 mg/kg, plasma, erlotinib 10 mg kg^-1 p.o. alone (-BAS 100), BALB/c mice) it was 3.1 h. Also, in data set [4] (female, plasma, erlotinib 10 mg kg^-1 p.o. alone (-BAS 100), BALB/c mice, read-out: Tmax), the Tmax stood at 0.5 h.

In the case of `C#Cc1cccc(Nc2ncnc3cc(OCCOC)c(OCCO)cc23)c1` [OSI-420], the Tmax in data set [4] (in vivo, 10 mg/kg) stood at 2.0 h.
